From publication PMC3568925 (Biochemistry, 2013)

Biological target: BacD (Bacillus subtilis, UniProt P39641)
Assay: LC/MS and 1H-NMR of dipeptide product
Assay type: biochemical
Settings: 1 mM substrate, 3 mM L-Ala, 3 mM ATP, 5 mM MgCl2, 20 uM BacD, 50 mM potassium phosphate pH 8.0, room temperature

Sequence of BacD (P39641 whole entry): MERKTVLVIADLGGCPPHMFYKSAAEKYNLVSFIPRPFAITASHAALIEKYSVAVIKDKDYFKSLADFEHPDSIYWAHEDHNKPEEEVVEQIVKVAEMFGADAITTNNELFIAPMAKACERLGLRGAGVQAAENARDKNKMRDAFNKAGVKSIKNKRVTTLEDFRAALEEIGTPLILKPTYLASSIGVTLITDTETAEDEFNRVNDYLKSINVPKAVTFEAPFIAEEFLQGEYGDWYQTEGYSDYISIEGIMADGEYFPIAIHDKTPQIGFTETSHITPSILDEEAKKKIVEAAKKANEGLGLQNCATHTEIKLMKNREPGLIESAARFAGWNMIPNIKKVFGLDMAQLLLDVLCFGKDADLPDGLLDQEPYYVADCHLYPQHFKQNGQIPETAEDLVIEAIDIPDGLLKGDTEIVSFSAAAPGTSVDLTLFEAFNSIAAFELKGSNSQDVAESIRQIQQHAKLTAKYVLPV

Structure (SMILES): N[C@@H](C[C@H]1C=C[C@H](O)CC1)C(=O)O [4S-H4Tyr]
- LC/MS and 1H-NMR of dipeptide product: BacD would ligate L-Ala onto the N-terminus of both the 4S and 4R diastereomers
